In one assay the test system is MONO-MAC-6. In words: Cytotoxicity against human MONO-MAC-6 cells incubated for 48 hrs by [3H]-thymidine incorporation based liquid scintillation counter analysis. The class given is functional, cell-based.
The nature of assay [1]: Inhibition of recombinant human MAPK expressed in Escherichia coli assessed as reduction in MEK-1 phosphorylation incubated for 60 mins by ELISA assay. (In general: An ELISA detects its analyte on a solid surface through an enzyme-linked reagent.)
For another assay, the system named is LoVo. The assay is described as follows: Inhibition of cell growth in human LoVo cells by SRB assay. The class given is functional, cell-based.
The next assay deals with Jurkat. In words: Antiinflammatory activity in PMA induced human Jurkat cells assessed as inhibition of IL-2 production by EIA assay. The class given is functional, cell-based.
Another assay has as its system L1210. The assay is described as follows: Cytotoxicity against mouse L1210 cells. The class given is functional, cell-based.
A further assay concerns KB. In words: Cytotoxicity against human KB cells. The class given is functional, cell-based.
Assay [2] concerns K562. In words: Cytotoxicity against human K562 cells. The class given is functional, cell-based.
A further assay has as its system MDA-MB-231. The assay is described as follows: Cytotoxicity against human MDA-MB-231 cells assessed as cell growth inhibition by cell based assay. The class given is functional.
A further assay concerns A549. The assay is described as follows: Cytotoxicity against human A549 cells assessed as cell growth inhibition by cell based assay. The class given is functional.
The next assay relates to PSN1. The assay is described as follows: Cytotoxicity against human PSN1 cells assessed as cell growth inhibition by cell based assay. It counts as functional.
For another assay, the system named is HT-29. In words: Cytotoxicity against human HT-29 cells assessed as cell growth inhibition by cell based assay. It counts as functional.
Assay [3] relates to K562. The assay is described as follows: Cytotoxicity against human K562 cells by MTT assay. The class given is functional, cell-based.
The next assay has as its system L02. The assay is described as follows: Cytotoxicity against human L02 cells by MTT assay. It counts as functional, cell-based. On the technique in general: Tetrazolium assays rely on reduction of a dye to a coloured formazan, in cell work by metabolically active cells.
In a further assay the test system is MCF7. The assay is described as follows: Cytotoxicity against human MCF7 cells by MTT assay. It counts as functional, cell-based.
For the next assay, the system named is WRL68. The assay is described as follows: Cytotoxicity against human WRL68 cells by MTT assay. It counts as functional, cell-based.
The test system of the next assay is Caco-2. The assay is described as follows: Cytotoxicity against human Caco-2 cells by MTT assay. It counts as functional, cell-based.
In assay [4] the target is E3 ubiquitin-protein ligase CBL-B (Homo sapiens, UniProt Q13191). In words: Inhibition of Cbl-b (unknown origin) assessed as inhibition of Cbl-b dependent ubiquitination in presence of ATP measured after 13 hrs by fluorescence microplate reader assay.
E3 ubiquitin-protein ligase CBL-B, sequence (Q13191 whole entry): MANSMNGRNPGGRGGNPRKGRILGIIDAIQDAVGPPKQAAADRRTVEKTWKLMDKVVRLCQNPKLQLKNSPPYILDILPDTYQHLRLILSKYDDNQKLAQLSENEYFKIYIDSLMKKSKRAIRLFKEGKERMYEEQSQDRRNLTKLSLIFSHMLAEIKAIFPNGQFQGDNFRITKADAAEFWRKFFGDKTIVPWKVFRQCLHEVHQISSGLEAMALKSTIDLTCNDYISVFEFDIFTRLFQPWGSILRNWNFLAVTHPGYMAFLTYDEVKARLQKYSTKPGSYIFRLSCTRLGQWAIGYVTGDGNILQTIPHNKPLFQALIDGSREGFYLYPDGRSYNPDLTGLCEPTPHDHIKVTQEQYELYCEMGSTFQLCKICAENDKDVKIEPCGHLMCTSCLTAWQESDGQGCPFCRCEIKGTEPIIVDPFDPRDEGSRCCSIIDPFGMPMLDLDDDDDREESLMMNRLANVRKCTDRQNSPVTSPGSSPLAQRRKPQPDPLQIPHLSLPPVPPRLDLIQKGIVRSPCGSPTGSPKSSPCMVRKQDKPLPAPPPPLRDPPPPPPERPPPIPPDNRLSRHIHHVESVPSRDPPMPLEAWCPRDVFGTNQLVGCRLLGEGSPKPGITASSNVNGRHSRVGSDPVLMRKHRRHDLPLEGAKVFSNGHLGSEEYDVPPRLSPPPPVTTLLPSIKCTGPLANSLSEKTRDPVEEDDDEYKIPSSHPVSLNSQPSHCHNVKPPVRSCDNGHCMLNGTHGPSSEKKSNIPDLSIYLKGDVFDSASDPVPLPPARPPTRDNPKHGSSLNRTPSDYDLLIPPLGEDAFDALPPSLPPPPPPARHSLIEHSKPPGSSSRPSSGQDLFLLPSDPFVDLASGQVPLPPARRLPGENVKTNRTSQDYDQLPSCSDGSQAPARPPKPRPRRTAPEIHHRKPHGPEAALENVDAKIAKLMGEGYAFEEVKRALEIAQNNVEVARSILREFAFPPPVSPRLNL
The next assay has as its system OVCAR-3. In words: Inhibition of cell growth in human OVCAR-3 cells by SRB assay. It counts as functional. Particulars: read-out: ED50 (the source's name). A general note: The SRB assay estimates cell density from bound dye.
A further assay has as its system SF-295. The assay is described as follows: Inhibition of cell growth in human SF-295 cells by SRB assay. It counts as functional. Particulars: read-out: ED50 (the source's name).
The test system of another assay is A498. In words: Inhibition of cell growth in human A498 cells by SRB assay. The class given is functional. Particulars: read-out: ED50 (the source's name).
The subject of the next assay is NCI-H460. In words: Inhibition of cell growth in human NCI-H460 cells by SRB assay. Particulars: read-out: ED50 (the source's name). It counts as functional.
A further assay has as its system KM-20L2. The assay is described as follows: Inhibition of cell growth in human KM-20L2 cells by SRB assay. The class given is functional. Particulars: read-out: ED50 (the source's name).
The next assay deals with SK-MEL-5. In words: Inhibition of cell growth in human SK-MEL-5 cells by SRB assay. It counts as functional. Particulars: read-out: ED50 (the source's name).
Assay [5] deals with Receptor tyrosine-protein kinase erbB-2 (Homo sapiens, UniProt P04626). The assay is described as follows: Inhibition of c-ErbB-2 (unknown origin).
Receptor tyrosine-protein kinase erbB-2, sequence (P04626 whole entry): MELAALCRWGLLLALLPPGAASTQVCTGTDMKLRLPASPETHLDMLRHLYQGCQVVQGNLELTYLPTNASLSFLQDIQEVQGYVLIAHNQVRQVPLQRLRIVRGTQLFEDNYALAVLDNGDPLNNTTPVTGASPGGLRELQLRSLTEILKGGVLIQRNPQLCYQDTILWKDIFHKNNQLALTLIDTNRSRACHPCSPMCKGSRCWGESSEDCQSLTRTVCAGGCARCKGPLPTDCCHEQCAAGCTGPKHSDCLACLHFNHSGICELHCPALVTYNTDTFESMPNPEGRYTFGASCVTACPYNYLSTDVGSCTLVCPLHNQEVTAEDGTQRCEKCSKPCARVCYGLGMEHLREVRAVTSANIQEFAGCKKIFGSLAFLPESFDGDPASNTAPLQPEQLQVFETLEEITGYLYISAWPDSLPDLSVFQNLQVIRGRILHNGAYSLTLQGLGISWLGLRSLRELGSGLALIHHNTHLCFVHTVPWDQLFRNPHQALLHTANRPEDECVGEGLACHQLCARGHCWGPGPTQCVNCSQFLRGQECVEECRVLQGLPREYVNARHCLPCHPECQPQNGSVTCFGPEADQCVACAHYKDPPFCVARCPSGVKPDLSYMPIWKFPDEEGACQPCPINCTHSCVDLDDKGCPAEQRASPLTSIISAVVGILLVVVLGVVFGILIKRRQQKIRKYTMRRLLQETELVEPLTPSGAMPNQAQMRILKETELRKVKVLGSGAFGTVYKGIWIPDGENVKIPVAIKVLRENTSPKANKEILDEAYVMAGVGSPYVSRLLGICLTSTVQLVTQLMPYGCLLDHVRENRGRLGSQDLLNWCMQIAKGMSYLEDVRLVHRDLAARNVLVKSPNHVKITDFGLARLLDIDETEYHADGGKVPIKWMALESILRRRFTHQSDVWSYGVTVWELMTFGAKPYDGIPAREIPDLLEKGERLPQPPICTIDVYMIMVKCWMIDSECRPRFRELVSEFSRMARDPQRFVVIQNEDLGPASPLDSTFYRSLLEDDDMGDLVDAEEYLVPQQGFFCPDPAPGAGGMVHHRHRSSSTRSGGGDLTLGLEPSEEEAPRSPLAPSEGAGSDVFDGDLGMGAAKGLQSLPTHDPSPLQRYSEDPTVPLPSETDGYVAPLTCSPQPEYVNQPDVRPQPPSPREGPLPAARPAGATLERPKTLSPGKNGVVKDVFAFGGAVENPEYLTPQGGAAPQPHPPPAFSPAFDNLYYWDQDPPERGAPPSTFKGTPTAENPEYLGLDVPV
In assay [6] the target is Cyclin-dependent kinase 4 (Homo sapiens, UniProt P11802). In words: Inhibition of CDK4 (unknown origin).
Cyclin-dependent kinase 4, sequence (P11802 whole entry): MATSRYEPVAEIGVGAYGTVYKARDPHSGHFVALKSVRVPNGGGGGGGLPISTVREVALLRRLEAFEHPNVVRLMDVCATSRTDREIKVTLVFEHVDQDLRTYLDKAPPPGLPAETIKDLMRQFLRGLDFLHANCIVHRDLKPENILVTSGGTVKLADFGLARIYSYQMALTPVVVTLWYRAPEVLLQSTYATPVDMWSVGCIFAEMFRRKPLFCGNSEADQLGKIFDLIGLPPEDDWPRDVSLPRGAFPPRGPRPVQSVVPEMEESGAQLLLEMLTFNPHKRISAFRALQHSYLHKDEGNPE
In another assay the test system is P388. The assay is described as follows: Cytotoxicity against mouse P388 cells. Particulars: read-out: ED50 (the source's name). The class given is functional, cell-based.
A short description of assay [7]: Displacement of [125I]-somatostatin from somatostatin (unknown origin) incubated for 60 mins by gamma scintillation counter analysis. The arrangement: species or system Homo sapiens.
The target in a further assay is VIP peptides (Homo sapiens, UniProt P01282). In words: Displacement of [125I]-VIP from Vasoactive intestinal peptide (unknown origin) incubated for 120 mins by gamma scintillation counter analysis.
VIP peptides, sequence (P01282 125-152 limits assumed): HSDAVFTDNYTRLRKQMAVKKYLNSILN

Where a SMILES comes first, the peptide text is derived from it. [ ]: non-standard residue; d: D form. The star is where a group is joined. X1 = Cn1c(Br)c(Br)c(Br)c1C(=O)*; NMeL = CN[C@@H](CC(C)C)C(=O)O

For `NC1=NC(=O)/C(=C2\CCNC(=O)c3[nH]c(Br)cc32)N1` [HYMENIALDISINE], the IC50 – broadly, the point on the concentration scale where inhibition reaches its midpoint – amounted to 610 nM with MONO-MAC-6, 6 nM in assay [1], 6 nM in the assay with LoVo and 4000 nM in the assay with Jurkat.

With `CO[C@]12C[C@@H](CNC(=O)c3cc(Br)c[nH]3)O[C@H]1NC(=O)N2`, inhibition with L1210 was half-maximal at 19600 nM (IC50).

For `N=C1N=C(NCCS(=O)(=O)O)C(O)(/C=C/CNC(=O)c2cc(Br)c(Br)[nH]2)N1` (stereo unspecified), the IC50 in the assay on KB and with K562 [2] was 20700 nM in each case.

Turning to `CC[C@H](C)[C@H](NC(=O)c1c(Br)c(Br)c(Br)n1C)C(=O)N(C)[C@@H](CC(C)C)C(=O)N1CCC[C@H]1C(=O)N[C@@H](CCC(N)=O)C(=O)O` (X1-I[NMeL]PQ-OH), the GI50 with MDA-MB-231, in the assay with A549, in the assay on PSN1 and with HT-29 was more than 12000 nM throughout.

With `O=C1NC(=O)/C(=C/CCNC(=O)c2[nH]cc(Br)c2Br)N1`, the concentration for half-maximal inhibition (IC50) with K562 [3] was found to be 6100 nM; in the assay with L02, 12300 nM.

For `CN1C(=O)C[C@H](C(N)=O)NC(=O)C(O)CNC(=O)[C@H](CNC(=O)c2cc(Br)c(Br)[nH]2)NC(=O)[C@H](CN)NC(=O)C1Cc1cnc(Cl)[nH]1` (stereo partly specified), the GI50 with MDA-MB-231, with A549, with PSN1 and in the assay on HT-29 was more than 12000 nM in each case.

In the case of `Cn1c(C(=O)NNC(=S)Nc2ccccc2F)cc(Br)c1Br`, the IC50 in the assay with MCF7, in the assay with WRL68 and with Caco-2 was 10 nM throughout.

For `COc1cc(NC(=S)NNC(=O)c2cc(Br)c(Br)n2C)cc(OC)c1OC`, the IC50 in the assay with MCF7, in the assay on WRL68 and in the assay on Caco-2 was 30 nM throughout.

`Cn1c(Br)ccc1C(=O)NC[C@H]1CC2N=C(N)NC2[C@@H](c2c[nH]c(N)n2)[C@@H]1CNC(=O)c1cc(Br)c[nH]1` (stereo partly specified): the concentration for half-maximal inhibition (IC50) in assay [4] was determined as 18000 nM.

In the case of `O=C1NC2n3c(cc(Br)c3Br)C(=O)N3CCCC23N1` (stereo unspecified), the EC50 in the assay on OVCAR-3 came to 1180 nM; with SF-295, 3850 nM; in the assay on A498, 530 nM; in the assay on NCI-H460, 1590 nM; with KM-20L2, 280 nM; with SK-MEL-5 it was 280 nM.

Consider `O=C(NNC(=S)Nc1ccc([N+](=O)[O-])cc1)c1cc(Br)c(Br)[nH]1`, for which the IC50 in the assay with MCF7, with WRL68 and with Caco-2 was 30 nM in each case.

As for `NC1NC2c3c([nH]c(Br)c3Br)C(=O)N3C[C@H](Cl)[C@H](O)C23N1` (stereo partly specified), the half-inhibitory concentration (IC50) with L1210 came out at 5680 nM.

Take `NC1=NC(=O)/C(=C2\CCNC(=O)c3[nH]c4ccccc4c32)N1`: the half-maximal inhibitory concentration (IC50) with Jurkat was determined as 3500 nM.

`CO[C@@]12C[C@@H](CNC(=O)c3cc(Br)c[nH]3)O[C@@H]1NC(=O)N2` displayed an IC50 in the assay on L1210 of 20900 nM.

Turning to `O=C(NNC(=S)Nc1ccc(Cl)cc1)c1cc(Br)c(Br)[nH]1`, the IC50 in the assay on MCF7, with WRL68 and with Caco-2 was 30 nM each time.

In the assay with MONO-MAC-6, `NC1=N/C(=C2/CCNC(=O)c3[nH]ccc32)C(=O)N1` [DEBROMOHYMENIALDISINE] registered a half-maximal inhibitory concentration (IC50) of 9670 nM.

As to `Cn1cc(Br)cc1C(=O)NC[C@H]1CC2N=C(N)NC2[C@@H](c2c[nH]c(N)n2)[C@@H]1CNC(=O)c1cc(Br)c(Br)[nH]1` (stereo partly specified), the IC50 in assay [4] came out at 18000 nM.

For the compound `N=C1NC(=O)/C(=C2/CCNC(=O)c3[nH]c(Br)c(Br)c32)N1`, the half-maximal inhibitory concentration (IC50) came out at 21000 nM in assay [5] and 98500 nM in assay [6].

In the case of `COCNC(=O)c1cc(Br)c(Br)[nH]1`, in the assay on P388, the EC50 came to 69400 nM.

On to `NC1=NC2C[C@H](CNC(=O)c3cc(Br)c[nH]3)[C@@H](CNC(=O)c3cc(Br)c[nH]3)[C@H](c3nc(N)c[nH]3)C2N1` (stereo partly specified), for which the concentration for half-maximal inhibition (IC50) in assay [7] is 2200 nM; on VIP peptides, 19200 nM.

The values above are taken from ChEMBL document CHEMBL5241122, “A concise review on marine bromopyrrole alkaloids as anticancer agents” (Bioorg Med Chem Lett, 2023).
